From patent publication US10329304B2, “Compounds and methods for inhibition of hedgehog signaling and phosphodiesterase” (Vanderbilt University, priority 2014, dated 2019)
“Also recorded” adds a separate entry of the source. Where two headings read alike, the source gives them in different places.

Assays:
[1] = test system: Gli1 transcription; assay: Sufu−/− mouse embryonic fibroblasts qRT-PCR; type: cell-based; conditions: Gli1 and Ptch1
[2] = biological target: consensus PDE4D sequence (Homo sapiens, UniProt Q08499); assay: PDE4D inhibition (consensus PDE4D sequence); type: biochemical
Source text: First, the contribution of PDE4 was revisited as a potential explanation for the observed mechanistic drift.

[3] = Lipophilic efficiency (LipE = pEC50 − cLogP) and cLogP
Method in brief: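 pEC50 came from TM3-Gli-Luc Gli-responsive luciferase reporter cells stimulated with 20 nM SAG, with non-specific cytotoxicity monitored in parallel. LipE was calculated by subtracting cLogP from pEC50.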

[4] = test system: SmoM2-Light cells; assay: Cell viability of SmoM2-Light cells; type: cell-based
Protocol: Cancer cell lines were seeded in 96 well tissue culture plate at a low density (10,000 cells per well) and treated with varying concentrations of Eggmanone. After 72 hr incubation, CellTiter-Blue Cell Viability Assay (Promega, Madison, Wis.) was then performed according to manufacturer's protocol. Absorbance was then measured in a Modulus Microplate reader (Promega, Madison, Wis.) at 590 nm and compared to cells treated with DMSO.

[5] = test system: otic kino-cilia motility; assay: Video-microscopy of zebrafish otic kino-cilia; type: in vivo; conditions: 2 μM
Source text: For visualizing ciliary beating, live embryos (20 hpf) were removed from their chorion, mounted in SeaPlaque low-melting agarose (Biowhittaker Molecular Applications) (1.0% in embryo medium) in microwells of glass-bottom culture dishes (MatTek), and covered with embryo medium. Movies were acquired by using OPENLAB software (Improvision) at 55 frames per second with a 63×DIC objective on a Zeiss Axiovert 200 inverted fluorescence microscope equipped with a Retiga Exi Fast camera (Qimaging). Kymographs were obtained by drawing a line across a ciliary trajectory by using ImageJ software (National Institutes of Health, developed by W. Rasband) and Multiple-Kymograph plugin (developed by J. Rietdorf and A. Seitz).

[6] = Mouse echocardiography after IP injection; type: in vivo; conditions: for Heart rate: 5 mg/kg to 20 mg/kg IP
Protocol: As shown below (FIGS. 28 and 29), ionotropic effects are seen within 30 minutes of eggmanone administration to a mouse (20 mg/kg IP injection). […] Mechanistically compound EGM targets the hydrolase PDE4. In Human adult myocardium, PDE4 localizes strictly to the z-bands.

[7] = test system: IFT88 localization; assay: IFT88 immunostaining in NIH3T3 cells; type: cell-based; conditions: EGM 5 μM; ciliobrevin D 100 μM
Source text: To investigate whether the disruption of the cilium-to-nucleus trafficking of Gli2 by eggmanone was due to a general defect in the retrograde transport within the primary cilium, we compared the effect of the cytoplasmic dynein motor inhibitor ciliobrevin D with the effect of eggmanone on the intraflagellar transport protein 88 (IFT88) trafficking^19. […] Thus, the effects of eggmanone on Gli2 trafficking is specific, rather than an indirect consequence of a global defect in ciliary transport machinery.

[8] = Calculated as pEC50 - cLogP, Molinspiration Cheminformatics
[9] = healthy wild type mice and mice with heart failure

Sequence of consensus PDE4D sequence (Q08499 whole entry): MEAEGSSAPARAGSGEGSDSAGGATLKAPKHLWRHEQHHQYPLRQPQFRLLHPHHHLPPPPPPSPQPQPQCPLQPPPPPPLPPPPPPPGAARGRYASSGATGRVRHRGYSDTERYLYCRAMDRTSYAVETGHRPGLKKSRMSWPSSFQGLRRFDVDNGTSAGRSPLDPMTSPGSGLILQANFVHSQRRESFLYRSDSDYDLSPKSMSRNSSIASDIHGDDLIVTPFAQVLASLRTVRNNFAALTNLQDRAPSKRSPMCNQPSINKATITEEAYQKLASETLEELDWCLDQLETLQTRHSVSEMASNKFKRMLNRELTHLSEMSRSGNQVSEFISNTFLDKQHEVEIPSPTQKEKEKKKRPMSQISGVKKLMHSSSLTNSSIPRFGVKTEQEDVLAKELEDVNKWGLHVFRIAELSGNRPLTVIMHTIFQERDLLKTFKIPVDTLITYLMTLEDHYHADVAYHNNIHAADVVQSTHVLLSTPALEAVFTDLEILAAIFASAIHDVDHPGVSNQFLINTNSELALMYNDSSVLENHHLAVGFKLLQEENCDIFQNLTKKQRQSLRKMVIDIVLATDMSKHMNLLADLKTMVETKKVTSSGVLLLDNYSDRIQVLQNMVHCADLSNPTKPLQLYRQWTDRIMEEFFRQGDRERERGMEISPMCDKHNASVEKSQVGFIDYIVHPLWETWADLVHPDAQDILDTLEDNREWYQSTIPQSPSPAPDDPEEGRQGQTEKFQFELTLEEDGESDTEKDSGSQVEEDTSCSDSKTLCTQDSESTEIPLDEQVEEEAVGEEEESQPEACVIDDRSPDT

| Compound | Transcriptional inhibition in the Sufu−/− cell line, in words [1] | PDE4D inhibition in words [2] | LipE [3, 8] | LipE ([3]; pEC50 - cLogP, Table 14) | Viability of SmoM2 cells [4] | Otic kino-cilia movement [5] | Otic kino-cilia movement ([5]; listed as eggmanone) | Heart rate [6] | Time to ionotropic effects ([6]; 20 mg/kg IP injection) [min] | Fractional shortening (FS) [6, 9] | IFT88 localization in the cilium [7] | Viability of SmoM2 cells ([4]; listed as Egm) | Otic kino-cilia movement ([5]; listed as Egm) | End-diastolic left ventricular internal dimension (LVIDd) [6, 9] | Side effects ([6]; mice) | Time to return to baseline heart function ([6]; mice) [h] |
| --- | --- | --- | --- | --- | --- | --- | --- | --- | --- | --- | --- | --- | --- | --- | --- | --- |
| C=C(C)Cn1c(SCC(=O)c2ccccc2)nc2sc3c(c2c1=O)CCCC3 [Formula 9g] | general ability to inhibit transcriptional activity | tracked well with EGM1's IC50:EC50 ratio | −0.01 | −0.01 | – | – | – | – | – | – | – | – | – | – | – | – |
| C=C(C)Cn1c(SCC(=O)c2cccs2)nc2sc3c(c2c1=O)CCCC3 [Eggmanone, 3-(2-methylallyl)-2-((2-oxo-2-(thiophen-2-yl)ethyl)thio)-5,6,7,8-tetrahydrobenzo[4,5]thieno[2,3-d]pyrimidine-4(3H)-one] | – | – | – | – | efficiently and selectively killed SmoM2-Light cells | markedly less motile | markedly less motile | without increasing heart rate | ≤ 30 | increases fractional shortening (FS) and ejection fraction (EF) | had no effect on IFT88 localization or cilium morphology | – | – | – | – | – |
| CCCn1c(SCC(=O)c2cccs2)nc2sc3c(c2c1=O)CCCC3 [Formula 9e] | general ability to inhibit transcriptional activity | tracked well with EGM1's IC50:EC50 ratio | 1.06 | 1.06 | – | – | – | – | – | – | – | – | – | – | – | – |
| C=C(C)Cn1c(SCC(=O)c2cccs2)nc2sc3c(c2c1=O)CCCC3 [EGM, Eggmanone] | – | – | – | – | – | cilium movement is markedly reduced | – | without increasing heart rate; also recorded: does not increase the heart rate | – | increases fractional shortening (FS) | did not affect IFT88 localization | rapid (within 24-hrs) decline in viability | cilia movement is markedly reduced | decreases end-diastolic left ventricular internal dimension (LVIDd) | no significant side effects | ≤ 24 |
